In ChEMBL document CHEMBL1201862, “PubChem BioAssay data set” (2004):
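Cells were grown in 96-well plates and exposed to each compound for 48 hours at five concentrations; endpoints were interpolated linearly between bracketing concentrations, or set to the highest concentration if not reached. GI50 is the concentration that inhibits growth by half.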 Active and inactive are the calls of the source. Rule as the data show it: active = GI50 up to about 1.1 µM and inactive = higher.

Experiments:
Assay in all cases: DTP human tumour cell line panel, 48 h
[1] = tested on: NCI-H226
[2] = tested on: Malme-3M
[3] = tested on: UACC-257
[4] = tested on: NCI-H522
[5] = tested on: ACHN
[6] = tested on: COLO 205
[7] = tested on: 786-0
[8] = tested on: SF-539
[9] = tested on: K562
[10] = tested on: IGROV-1
[11] = tested on: HOP-92
[12] = tested on: SF-295
[13] = tested on: U-251
[14] = tested on: SN12C
[15] = tested on: CAKI-1

Measured: GI50

O=c1c2cc(Br)cc(Br)c2nc(CCCl)n1-c1ccc(O)c([N+](=O)[O-])c1
inactive: [1] 19.6 µM | [2] 19.1 µM | [3] 15.1 µM | [4] 9.66 µM | [5] 19.7 µM | [6] 21 µM | [7] 18.3 µM | [8] 21.4 µM | [9] 33.3 µM | [10] 22.6 µM | [11] 24 µM | [12] 24.1 µM | [13] 18.4 µM | [14] 17.6 µM

C/C(=N/NS(=O)(=O)c1ccc(C)cc1)c1cccc[n+]1[O-]
inactive: [3] > 100 µM | [4] > 100 µM | [15] > 100 µM | [5] > 100 µM | [7] > 100 µM | [8] > 100 µM | [10] > 100 µM | [11] > 100 µM | [12] > 100 µM | [13] > 100 µM | [14] > 100 µM

C/C(CC(=O)CCCC(=O)Nc1ccc(Cl)cc1Cl)=N/NC(=O)CC#N
inactive: [1] > 100 µM | [2] > 100 µM | [3] > 100 µM | [15] > 100 µM | [5] > 100 µM | [6] > 100 µM | [7] > 100 µM | [8] > 100 µM | [9] > 100 µM | [10] > 100 µM | [12] > 100 µM | [13] > 100 µM | [14] > 100 µM

O=C(O)c1ccc2c(c1)C(=O)N(c1ccc(S(=O)(=O)c3ccc(N4C(=O)c5ccc(C(=O)O)cc5C4=O)cc3)cc1)C2=O
inactive: [1] > 100 µM | [2] > 100 µM | [3] > 100 µM | [4] > 100 µM | [15] > 100 µM | [5] > 100 µM | [6] > 100 µM | [7] > 100 µM | [8] > 100 µM | [9] > 100 µM | [12] > 100 µM | [13] > 100 µM | [14] > 100 µM

OC12c3ccccc3C1(N1CCOCC1)CCCCC21OCCCO1 (stereo not given)
inactive: [1] > 100 µM | [2] > 100 µM | [3] > 100 µM | [4] > 100 µM | [15] > 100 µM | [5] > 100 µM | [6] > 100 µM | [7] > 100 µM | [8] > 100 µM | [9] > 100 µM | [10] > 100 µM | [12] > 100 µM | [13] > 100 µM | [14] > 100 µM

CCCCCCCCCCCc1nnc(N)o1
inactive: [1] > 100 µM | [2] > 100 µM | [3] > 100 µM | [4] 67 µM | [5] > 100 µM | [6] > 100 µM | [7] > 100 µM | [8] > 100 µM | [9] 51.5 µM | [10] > 100 µM | [11] > 100 µM | [12] > 100 µM | [13] > 100 µM | [14] > 100 µM

COc1cc(C(=O)C/C(CCC(=O)Nc2ccccc2[N+](=O)[O-])=N\NC(=O)C(N)=O)ccc1O
inactive: [1] > 100 µM | [3] > 100 µM | [15] > 100 µM | [5] > 100 µM | [6] > 100 µM | [7] > 100 µM | [8] > 100 µM | [9] > 100 µM | [10] > 100 µM | [11] 65.3 µM | [12] > 100 µM | [13] > 100 µM

CC1CC#CCOC(=O)CCCC1=O (stereo not given)
inactive: [1] > 100 µM | [4] > 100 µM | [6] > 100 µM | [7] > 100 µM | [8] > 100 µM | [9] > 100 µM | [10] > 100 µM | [12] > 100 µM | [13] > 100 µM | [14] > 100 µM

C[N+](C)=c1[nH]c2ccccc2[nH]1
inactive: [2] > 100 µM | [3] > 100 µM | [4] > 100 µM | [15] > 100 µM | [5] > 100 µM | [6] > 100 µM | [7] > 100 µM | [8] > 100 µM | [9] > 100 µM | [10] > 100 µM | [11] > 100 µM | [12] > 100 µM | [13] > 100 µM | [14] > 100 µM

O=P1(c2ccccc2)CCCCC1
inactive: [1] > 100 µM | [2] > 100 µM | [3] > 100 µM | [4] > 10 µM | [5] > 100 µM | [6] > 100 µM | [7] > 100 µM | [8] > 100 µM | [9] > 100 µM | [10] > 100 µM | [12] > 100 µM | [13] > 100 µM | [14] > 100 µM

CC(=O)OCC1OC(n2cccnc2=O)C(OC(C)=O)C1OC(C)=O (stereo not given)
inactive: [1] > 100 µM | [2] > 100 µM | [3] > 100 µM | [4] > 100 µM | [15] > 100 µM | [5] > 100 µM | [6] > 100 µM | [7] > 100 µM | [9] > 100 µM | [11] > 100 µM | [13] > 100 µM | [14] > 100 µM

Cc1cccc(O)c(=O)c1
inactive: [1] 3.3 µM | [2] 31 µM | [3] 28.3 µM | [4] 6.79 µM | [15] 63.1 µM | [5] 31.7 µM | [6] 6.24 µM | [7] 9.12 µM | [8] 29.6 µM | [10] 37.4 µM | [11] 89.3 µM | [12] 39.7 µM | [13] 21.4 µM | [14] 37.8 µM

C(=C1\CCC/C(=C/c2ccccc2)C1=NNc1ccccc1)/c1ccccc1
inactive: [2] > 100 µM | [3] > 100 µM | [4] > 100 µM | [5] > 100 µM | [6] > 100 µM | [7] > 100 µM | [8] > 100 µM | [9] > 100 µM | [10] > 100 µM | [11] > 100 µM | [12] > 100 µM | [13] > 100 µM | [14] > 100 µM

COc1cccc(C(=O)C2C(=O)N(C)CCc3ccccc32)c1OC (stereo not given)
inactive: [1] > 100 µM | [2] > 100 µM | [3] > 100 µM | [4] > 100 µM | [15] > 100 µM | [5] > 100 µM | [6] > 100 µM | [7] > 100 µM | [9] > 100 µM | [10] > 100 µM | [11] > 100 µM | [13] > 100 µM | [14] > 100 µM

Cc1ccc2nc3c(Cl)cc(=O)cc-3sc2c1
inactive: [1] 27.2 µM | [2] 30 µM | [3] 20.2 µM | [4] 16.7 µM | [15] 27.4 µM | [5] 23.3 µM | [6] 18.7 µM | [7] 19.8 µM | [8] 3.38 µM | [9] 17.6 µM | [10] 19.4 µM | [11] 21.8 µM | [12] 25.8 µM | [13] 20.7 µM | [14] > 10 µM
